Reference: publication PMC3401268 (Bioorganic & medicinal chemistry, 2012)

How the values were obtained:
α-synuclein fibrils [1] = target: T1, α-synuclein fibrils (Homo sapiens, UniProt P37840)
α-synuclein fibrils [2] = target: T1, α-synuclein fibrils; assay: ThT saturation binding to α-synuclein fibrils; settings: Tris buffer 30 mM pH 7.4

CCc1cc(Cl)c(OC)c(C(=O)NC[C@@H]2CCCN2CC)c1O.Cl [eticlopride hydrochloride]
Competition for ThT in the assay (specificity control) (α-synuclein fibrils [1]): no significant competition

Cc1ccc2c(c1)sc(-c1ccc(N(C)C)cc1)[n+]2C [ThT, Thioflavin T]
Bmax of ThT binding to α-synuclein fibrils (α-synuclein fibrils [2]): 5672 afu
